Results: patent US20180071307A1, “MEDICINAL COMPOSITION FOR ALLEVIATING ENDOMETRIOSIS AND COMPLICATIONS THEREOF AND USE OF THE SAME” (NATIONAL SUN YAT-SEN UNIVERSITY, priority 2016, published 2018)

Columns and labels:
[1] = system: ovarian clear cell carcinoma cell lines ES-2 and TOV-21G; assay: DNA synthesis (BrdU incorporation); type: cell-based, human; conditions: after 48 h of treatment
Text: (§1) For anti-ribosome biogenesis assays, including cell growth, cell migration and cell cycle analysis, ovarian clear cells were maintained for five days in culture medium with or without RNA polymerase I inhibitor, CX-5461 (Selleckchem, Houston, Tex.) or GSK2126458 (GlaxoSmithKline, Middlesex, United Kingdom).
(§2) Please refer to FIGS. 4A to 4E, which illustrate that mTOR/c-Myc inhibition suppresses cell growth and mobility of ovarian clear cells according to an embodiment of the present invention. FIG. 4A is depicted to ovarian cancer cell lines, ES-2 and TOV-2IG, treated with the mTOR/c-Myc inhibitor, GSK2126458, at a final concentration of 50 nM. GSK2126458 effects on effectors of ribosome biogenesis were measured by qPCR at the indicated time points. Data were represented as means of triplicates with standard variations. FIG. 4B is depicted to GSK2126458 effects on cell growth were assessed via MTT assay. FIG. 4C is depicted to cell mobility measured using wound-healing migration assays. Cells migrating into the detection zone were counted and averaged from eight replicates. FIG. 4D is depicted to DNA synthesis (BrdU incorporation) of cells influenced by GSK2126458. FIG. 4E is depicted to cell cycle inhibited by GSK2126458 after 48 hours of treatment and analyzed by flow cytometry using propidium iodide DNA staining. The cell cycle of many cells was inhibited and arrested at G1 phase.

[2] = system: endometriosis lesions; assay: mouse model of endometriosis: lesion numbers; type: in vivo, C57BL/6 mice; conditions: compared to respective vehicle; CX-5461 1.25 mg/100 μL thrice per week, GSK2126458 0.075 mg/100 μL five times per week, three weeks
Experimental: (§3) Mature (approximately 8-week-old) female C57BL/6 mice were purchased from Harlan Laboratories (Derby, UK) and were allowed to acclimate for 1 week before surgery. Mice were maintained on standard chow and water available ad libitum and were housed in environmentally controlled facilities illuminated between 7:00 AM and 7:00 PM. All the animal procedures were performed in accordance with legal requirements.
(§4) Typically, menstruation was induced in adult donor mice (approximately 8 weeks of age) using a protocol developed as aforemented. In brief, long-term ovariectomized (OVE) mice (day 1) were primed with s.c. injections of 100 ng of estradiol-17β (days 7 to 9), treated with progesterone (P4; Sigma-Aldrich, Dorset, UK) delivered via a SILASTIC implant (Dow Corning Corp, Midland, Mich.) from days 13 to 19, and injected with 5 ng of estradiol-17β in sesame oil on days 13, 14, and 15. Decidualization was induced in one uterine horn using […] of oil (day 15), and endometrial tissue in the process of being shed from the decidualized horn was recovered from mice culled on day 19, 4 hours after P4 withdrawal (removal of pellet) by opening the horn longitudinally in a petri dish and scraping the tissue away from the myometrial layer using a scalpel. […]

[3] = system: endometriosis-related pain; assay: mouse model of endometriosis: pressure pain thresholds (mechanical hyperalgesia); type: in vivo, C57BL/6 mice; conditions: versus vehicles; for abdominal retraction threshold: day 33 to day 40 (FIG. 9B); for paw withdrawal threshold: hind paw, day 33 to day 40 (FIG. 9C)
Experimental: as §3
as §4, with “scalpel. The tissue mass was suspended in 0.2 mL of PBS and passed through a 19-gauge needle before being injected i.p. into anesthetized recipient mice (approximately 8 weeks of age) that had been previously ovariectomized and implanted with an estradiol-17β (Sigma-Aldrich) SILASTIC implant (FIG. 6). Tissue from one decidualized donor horn was used to inoculate each recipient mouse (approximately 40 mg tissue/0.2 mL PBS per mouse) on day 19.” for “scalpel.”
Pressure pain thresholds were assessed by a commercially available pain evaluation kit (Touch Test® Sensory Evaluators (North Coast Medical Inc., CA, U.S.A.). This pain evaluation kit has different probes (or needles) of different diameters, which were respectively stab the abdomen or the palmar side of the hind paw of mice. Mice were instructed to signal when the stimulus became painful, and observed which size cause painful. Threshold levels (gravity, g) were assessed before and after the test, and the average of three measures were calculated, for evaluating abdominal retraction threshold (g) or paw withdrawal threshold (g) of each mouse. […]

[4] = system: ovarian clear cell carcinoma cell lines ES-2 and TOV-21G; assay: cell growth via MTT assay; type: cell-based, human; conditions: after 48 h of treatment
Text: as §1
as §2, with “Data were represented as means of triplicates with standard variations.” left out, “FIG. 4D is depicted to DNA synthesis (BrdU incorporation) of cells influenced by GSK2126458.” left out, “The cell cycle of many cells was inhibited and arrested at G1 phase.” left out
(§5) Please refer to FIGS. 5A to 5D, which illustrate that RNA polymerase 1 inhibition suppresses cell growth and mobility of ovarian clear cells. […] FIG. 5B is depicted to CX-5461 effects on cell growth were assessed via MTT assay. […]

[5] = system: endometriosis-related pain; assay: mouse model of endometriosis: tunnel entries (overall activity); type: in vivo, C57BL/6 mice; conditions: versus vehicles; day 33 to day 40 (FIG. 9A)
Experimental: as §3
Typically, menstruation was induced in adult donor mice (approximately 8 weeks of age) using a protocol developed as aforemented. In brief, long-term ovariectomized (OVE) mice (day 1) were primed with s.c. injections of 100 ng of estradiol-17β (days 7 to 9), treated with progesterone (P4; Sigma-Aldrich, Dorset, UK) delivered via a SILASTIC implant (Dow Corning Corp, Midland, Mich.) from days 13 to 19, and injected with 5 ng of estradiol-17β in sesame oil on days 13, 14, and 15. […]
On day 33 to day 40, some behavior tests were scored from tunnel entries and pressure pain thresholds. Mice freely moved in three cages connected by tunnels, and numbers of tunnel entered by each mouse were measured in five minutes, and the average of three measures were calculated, for evaluating overall activity of each mouse. […]

[6] = system: inflammatory cells (small peritoneal macrophages, neutrophils) in abdominal cavity; assay: mouse model of endometriosis: inflammatory cells in abdominal cavity; type: in vivo, C57BL/6 mice; conditions: comparing with naive, sham and vehicles; for small peritoneal macrophages in abdominal cavity: three weeks of treatment (FIG. 8A); for neutrophils in abdominal cavity: three weeks of treatment (FIG. 8B)
Experimental: as §3
Typically, menstruation was induced in adult donor mice (approximately 8 weeks of age) using a protocol developed as aforemented. In brief, long-term ovariectomized (OVE) mice (day 1) were primed with s.c. injections of 100 ng of estradiol-17β (days 7 to 9), treated with progesterone (P4; Sigma-Aldrich, Dorset, UK) delivered via a SILASTIC implant (Dow Corning Corp, Midland, Mich.) from days 13 to 19, and injected with 5 ng of estradiol-17β in sesame oil on days 13, 14, and 15. Decidualization was induced in one uterine horn using […] of oil (day 15), and endometrial tissue in the process of being shed from the decidualized horn was recovered from mice culled on day 19, 4 hours after P4 withdrawal (removal of pellet) by opening the horn longitudinally in a petri dish and scraping the tissue away from the myometrial layer using a scalpel. The tissue mass was suspended in 0.2 mL of PBS and passed through a 19-gauge needle before being injected i.p. into anesthetized recipient mice (approximately 8 weeks of age) that had been previously ovariectomized and implanted with an estradiol-17β (Sigma-Aldrich) SILASTIC implant (FIG. 6). Tissue from one decidualized donor horn was used to inoculate each recipient mouse (approximately 40 mg tissue/0.2 mL PBS per mouse) on day 19. In FIG. 6, there are four groups: B, injecting recipient mice with EV once and vehicle of CX-5461 every Monday, Wednesday and Friday for three weeks; GSK, injecting recipient mice with EV once and GSK2126458 on Monday to Friday for three weeks; A, injecting recipient mice with EV once and vehicle of GSK2126458 on Monday to Friday for three weeks; Sham, injecting recipient mice with EV once (no endometriosis, hormone treatment); Naive, mice without endometriosis or treated with any hormone or drug.
[…] E2 (E2, 100 ng/100 μL or 5 ng/100 μL) was diluted in sesame oil. Estradiol valerate (EV, 500 ng/100 μL) was diluted in sesame oil. P4 pellet was fused with progesterone (P4; Sigma-Aldrich, Dorset, UK) delivered via a SILASTIC implant (Dow Corning Corp, Midland, Mich.). […]

[7] = system: ovarian clear cell carcinoma cell lines ES-2 and TOV-21G; assay: wound-healing migration assay (cell mobility); type: cell-based, human; conditions: after 48 h of treatment
Text: as §1
as §2, with “Data were represented as means of triplicates with standard variations.” left out, “FIG. 4D is depicted to DNA synthesis (BrdU incorporation) of cells influenced by GSK2126458.” left out, “The cell cycle of many cells was inhibited and arrested at G1 phase.” left out
as §5

[8] = system: ovarian clear cell carcinoma cell lines ES-2 and TOV-21G; assay: cell cycle analysis by flow cytometry using propidium iodide DNA staining (both cell lines, result in words); type: cell-based, human; conditions: after 48 hours of treatment (FIG. 4E)
Text: as §1, §2

[9] = system: effectors of ribosome biogenesis (selected snoRNAs and RPs); assay: qPCR of effectors of ribosome biogenesis in ovarian clear cell carcinoma cells; type: cell-based, human; conditions: ES-2 and TOV-21G, following 24 h of treatment
Text: as §1
as §2, with “Data were represented as means of triplicates with standard variations.” left out, “FIG. 4D is depicted to DNA synthesis (BrdU incorporation) of cells influenced by GSK2126458.” left out, “The cell cycle of many cells was inhibited and arrested at G1 phase.” left out
as §5

[10] = system: ES-2 cells; assay: cell cycle analysis by flow cytometry using propidium iodide DNA staining, ES-2; type: cell-based, human; conditions: after 96 h of treatment
Text: as §1
(§6) Please refer to FIGS. 5A to 5D, which illustrate that RNA polymerase 1 inhibition suppresses cell growth and mobility of ovarian clear cells. FIG. 5A is depicted to cells treated with the RNA polymerase 1 inhibitor, CX-5461, at a final concentration of 25 nM. CX-5461 effects on downstream effectors of ribosome biogenesis were measured by qPCR at the indicated time points. Data were represented as means of triplicates with standard variations. FIG. 5B is depicted to CX-5461 effects on cell growth were assessed via MTT assay. FIG. 5C is depicted to cell mobility measured using wound-healing migration assays. Cells migrating into the detection zone were counted and averaged from eight replicates. FIG. 5D is depicted to treated cells that were analyzed at the indicated time points by flow cytometry using propidium iodide DNA staining.

[11] = system: TOV-21G cells; assay: cell cycle analysis by flow cytometry using propidium iodide DNA staining, TOV-21G; type: cell-based, human; conditions: after 96 h of treatment
Text: as §1, §6

For `COc1ncc(-c2ccc3nccc(-c4ccnnc4)c3c2)cc1NS(=O)(=O)c1ccc(F)cc1F` [GSK2126458, 2,4-difluoro-N-[2-methoxy-5-[4-(4-pyridazinyl)-6-quinolinyl]-3-pyridinyl]benzenesulfonamide], the DNA synthesis [1] was “inhibition”, the lesion numbers [2] was “significantly reduced” and the abdominal retraction threshold [3] was “higher”. For the same compound, the paw withdrawal threshold [3] was “higher”, the cell proliferation rate [4] was “decreased” and the “overall activity (tunnel entries in five minutes)” value [5] was “more active”. The “small peritoneal macrophages in abdominal cavity” value [6] was “significantly reduced”, the “neutrophils in abdominal cavity” value [6] was “significantly reduced” and the cell mobility rate [7] was “decreased”. The cell cycle arrest [8] was “cell arrest at G1-phase” and the “cells of sub-G1 phase (implying cell death)” value [8] was “increased”.
In the case of `Cc1cnc(CNC(=O)c2c(=O)c3ccc(N4CCCN(C)CC4)nc3n3c2sc2ccccc23)cn1` [CX-5461], the DNA synthesis [1] is reported as “inhibition”, the lesion numbers [2] is reported as “significantly reduced” and the “expression of the selected snoRNAs and RPs (qPCR, FIG. 5A)” value ([9]; CX-5461 at 25 nM) is reported as “reduced”. For the same compound, the “expression of the selected snoRNAs and RPs (qPCR, FIG. 4A)” value ([9]; FIG. 4A legend: GSK2126458 at 50 nM) was “reduced”, the abdominal retraction threshold [3] was “higher” and the paw withdrawal threshold [3] was “higher”. The cell proliferation rate [4] was “decreased”, the “cell arrest at G2/M-phase” value [10] was 48.1% and the cell death [10] was 12.3%. For the same compound, the “overall activity (tunnel entries in five minutes)” value [5] was “more active”, the “small peritoneal macrophages in abdominal cavity” value [6] was “significantly reduced” and the “neutrophils in abdominal cavity” value [6] was “significantly reduced”. For the same compound, the cell mobility rate [7] was “decreased”, the “cell arrest at G2/M-phase” value [11] was 52.3% and the cell death [11] was 23.4%.
